Common to all, as to assay: Intracellular calcium mobilization (Fluo-4NW) in transfected HEK293T cells
Type in all cases: cell-based
A general note: A change in cytosolic calcium serves as a functional read-out for many receptors and channels.

For test [1], the target named is T1, TP A160T mutant (nsSNP variant) (Homo sapiens, UniProt P21731, A160T).
T1 construct: expressed in transfected cells; HEK293T (calcium assays)
T1 sequence (P21731 1-343 A160T): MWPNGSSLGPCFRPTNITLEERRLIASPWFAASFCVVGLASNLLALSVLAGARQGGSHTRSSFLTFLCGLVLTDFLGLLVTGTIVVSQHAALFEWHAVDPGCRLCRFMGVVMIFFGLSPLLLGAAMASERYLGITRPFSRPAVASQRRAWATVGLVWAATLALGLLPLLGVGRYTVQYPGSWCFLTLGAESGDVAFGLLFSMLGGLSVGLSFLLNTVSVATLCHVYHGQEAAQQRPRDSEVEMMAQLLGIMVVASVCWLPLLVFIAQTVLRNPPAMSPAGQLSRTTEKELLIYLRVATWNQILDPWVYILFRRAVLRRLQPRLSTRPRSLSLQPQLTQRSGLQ
As to conditions: read-out: EC50 of agonist U46619 (calcium mobilized), transiently transfected HEK293T cells, mean ± S.E. On the procedure: (§1) Amino acid substitutions were introduced into the synthetic TPα gene carried by the expression vector pMT4 as described previously, [29]. DNA sequences of all the mutated genes were verified by automated DNA sequencing. To minimize variations in transfection efficiency, the total amount transfected DNA was kept constant in all cases at 1 µg of DNA per 7×10^5 cells. The wild type TP or mutant genes were expressed in COS-1 cells using a DEAE-dextran based transient transfection method, [29], and in HEK293T cells using lipofectamine 2000 (Invitrogen). Except unless specified, the membranes prepared from COS-1 cells were used for radioligand binding assays and immunoblots. For intracellular calcium determination assays and immunofluorescence imaging, HEK293T cells were used. For transient transfections of HEK293T cells using the plasmid pMT4, lipofectamine 2000 (Invitrogen) mediated transfection was used as described by the manufacturer. Membranes were prepared using Buffers A and B and as described previously, [29]. The protein concentration in the resuspended membrane pellet was determined using a modified DC protein assay kit from Bio-Rad Laboratories (Hercules, CA).
(§2) Changes in intracellular calcium were measured by using the fluorescent calcium sensitive dye Fluo-4NW (Invitrogen). After 6–8 hours of transient transfection of HEK293T cells using lipofectamine 2000, 100,000 viable cells were plated into each well of a 96-well tissue culture treated BD-falcon optilux plates. Cells mock transfected with vector pMT4 alone were used as a negative control. Following 24 hours of incubation at 37°C, the media was removed and cells were incubated with the dye Fluo-4NW (Invitrogen) containing 77 µg/ml of probenecid for 1 hour, as recommended by the manufacturer. […] Dose–response curves were generated and EC50 values calculated by nonlinear regression analysis using PRISM software version 5.0 (GraphPad Software Inc, San Diego, CA) after subtracting the responses of mock-transfected cells stimulated with same concentrations of agonists.

The next test addresses T2, TP F107A mutant (Homo sapiens, UniProt P21731, F107A).
T2 construct: expressed in transfected cells; HEK293T (calcium assays)
T2 sequence (P21731 1-343 F107A): T1 sequence (P21731 1-343 A160T) with F107A, T160A
As to conditions: read-out: EC50 of agonist U46619 (calcium mobilized), transiently transfected HEK293T cells, mean ± S.E. On the procedure: as §1, §2

Another test concerns the target T3, TP G164V mutant (Homo sapiens, UniProt P21731, G164V).
T3 construct: expressed in transfected cells; HEK293T (calcium assays)
T3 sequence (P21731 1-343 G164V): T1 sequence (P21731 1-343 A160T) with T160A, G164V
To be noted: read-out: EC50 of agonist U46619 (calcium mobilized), transiently transfected HEK293T cells, mean ± S.E. On the procedure: as §1, §2

For test [2], the target named is T4, TP G164V/V110A double mutant (Homo sapiens, UniProt P21731, G164V/V110A).
T4 construct: expressed in transfected cells; transient, pMT4
T4 sequence (P21731 1-343 V110A/G164V): T1 sequence (P21731 1-343 A160T) with V110A, T160A, G164V
As to conditions: response could be restored upon stimulation with elevated levels of U46619. On the procedure:
as §1, §2

The target of test [3] is T5, WT-TP (wild type human thromboxane A2 receptor TPα) (Homo sapiens, UniProt P21731).
T5 construct: expressed in transfected cells; HEK293T (calcium assays)
T5 sequence (P21731 1-343): T1 sequence (P21731 1-343 A160T) with T160A
As to conditions: read-out: EC50 of agonist U46619 (calcium mobilized), transiently transfected HEK293T cells, mean ± S.E. On the procedure: as §1, §2

Positions count from the first letter of the chain named. Values joined by “and” are separate entries in the source; they are usually repeats but may differ in a detail not shown here. Identical values can stand only once.

Broadly, the EC50 is the concentration that produces a half-maximal response. As for `CCCCC[C@H](O)/C=C/[C@@H]1[C@@H](C/C=C\CCCC(=O)O)[C@H]2CO[C@@H]1C2` [U46619], the EC50 is 5.5 ± 0.3 nM in test [1]; 2.5 ± 0.7 nM on TP F107A mutant; 38 ± 2.1 nM at TP G164V mutant; 13 nM and 13.1 nM in test [3]. Further, the “Calcium response to U46619” value in test [2] is recorded as “reduced calcium response”.
